Test [1] relates to Mycobacterium tuberculosis. Put plainly: Antitubercular activity against Mycobacterium tuberculosis H37Rv ATCC27294 assessed as complete cessation of growth. The conditions noted are these: H37Rv ATCC 27294. Format: functional.
Test [2] in a line: Cytotoxicity against mouse macrophage cell line J774.1 (ATCC TIB-67) for 3 days by Alamar Blue. Type of test: cell-based. Particulars: 72 h. (Resazurin is reduced to fluorescent resorufin, in cell work by metabolically active cells.)

In brackets after ≈: the same amount, converted by molar mass.

What is called MIC is the lowest concentration that inhibits growth of the organism. By IC50 is commonly meant the point on the concentration scale where inhibition reaches its midpoint. With `O=C(Nc1cc(C(F)(F)F)cc(C(F)(F)F)c1)c1cccc(Cl)c1`, the minimal inhibitory concentration (MIC) in test [1] was over 50 µM. In test [2], this compound came in with an IC50 of over 60 µM.
In the case of `O=C(Nc1cc(C(F)(F)F)cc(C(F)(F)F)c1)c1cc(-n2cccc2)ccc1O`, the minimal inhibitory concentration (MIC) in test [1] stood at 3.1 µM (≈ 1.28 µg/mL). In test [2], this compound yielded an IC50 of 3.1 µM.
For `Cc1ccc(O)c(C(=O)Nc2cc(C(F)(F)F)cc(C(F)(F)F)c2)c1`, the minimum inhibitory concentration (MIC) in test [1] came out at 6.3 µM (≈ 2.29 µg/mL). Besides, in test [2], 5.4 µM corresponded to half-maximal inhibition (IC50).
For the compound `O=C(Nc1cc(C(F)(F)F)cc(C(F)(F)F)c1)c1cc(F)ccc1O`, the MIC in test [1] was determined as 3.1 µM (≈ 1.14 µg/mL). In test [2], this compound showed a 50% inhibitory concentration (IC50) of 2.5 µM.
The corresponding values for `O=C(Nc1cc(C(F)(F)F)cc(C(F)(F)F)c1)c1cc(Br)ccc1O` are 6.3 µM (≈ 2.7 µg/mL) and 4.9 µM.
Consider `O=C(Nc1cc(C(F)(F)F)cc(C(F)(F)F)c1)c1cc(I)ccc1O`, for which the MIC in test [1] came out at 6.3 µM (≈ 2.99 µg/mL). Further, inhibition in test [2] was half-maximal at 5.6 µM (IC50).
For `COc1ccc(O)c(C(=O)Nc2cc(C(F)(F)F)cc(C(F)(F)F)c2)c1`, in that order: 6.3 µM (≈ 2.39 µg/mL) and 7.7 µM.
For `O=C(Nc1cc(C(F)(F)F)cc(C(F)(F)F)c1)c1cc(Cl)cc(Cl)c1O`, the MIC in test [1] was 13 µM (≈ 5.44 µg/mL). In test [2], this compound displayed a concentration for half-maximal inhibition (IC50) of over 60 µM.
For `O=C(Nc1cc(C(F)(F)F)cc(C(F)(F)F)c1)c1cccc(O)c1O`, the minimum inhibitory concentration (MIC) in test [1] is over 50 µM. In test [2], this compound yielded a half-maximal inhibitory concentration (IC50) of 1.7 µM.
For `O=C(Nc1cc(C(F)(F)F)cc(C(F)(F)F)c1)c1cc([N+](=O)[O-])ccc1O`, in that order: at least 50 µM and over 60 µM.
For the compound `CC(=O)Oc1ccc(Cl)cc1C(=O)Nc1cc(C(F)(F)F)cc(C(F)(F)F)c1`, the MIC in test [1] was found to be 1.6 µM (≈ 0.681 µg/mL). Also, in test [2], the IC50 is over 60 µM.
The corresponding values for `COc1ccc(Cl)cc1C(=O)Nc1cc(C(F)(F)F)cc(C(F)(F)F)c1` are over 50 µM and over 60 µM.
For `O=C(Nc1cc(C(F)(F)F)cc(C(F)(F)F)c1)c1cc(Cl)ccc1OCc1ccccc1`, in that order: over 50 µM and over 60 µM.
The corresponding values for `Nc1ccc(Cl)cc1C(=O)Nc1cc(C(F)(F)F)cc(C(F)(F)F)c1` are over 50 µM and over 60 µM.
For the compound `O=C(Nc1cc(C(F)(F)F)cc(C(F)(F)F)c1)c1ccccc1Cl`, the MIC in test [1] is over 50 µM. The IC50 in test [2] was over 1.7 µM.
Turning to `O=C(Nc1cc(C(F)(F)F)cc(C(F)(F)F)c1)c1ccccc1O`, the MIC in test [1] was 6.3 µM (≈ 2.2 µg/mL). This compound also gave an IC50 in test [2] of 12 µM.
The corresponding values for `O=C(Nc1cc(C(F)(F)F)cc(C(F)(F)F)c1)c1cc(Cl)ccc1O` [IMD-0354] are 3.1 µM (≈ 1.19 µg/mL) and 5.2 µM.

The record behind these values is ChEMBL document CHEMBL2311418, “Structure-activity relationships of antitubercular salicylanilides consistent with disruption of the proton gradient via proton shuttling” (Bioorg Med Chem, 2013).
